# Source: US20160346219A1, “PHOSPHOLIPID-COATED THERAPEUTIC AGENT NANOPARTICLES AND RELATED METHODS” (Autotelic LLC, priority 2015, published 2016)
# Test: Screening of lyoprotectants for stabilization of nanoparticles on lyophilization (particle size before lyophilization and after reconstitution)
# Format: physicochemical
# Conditions: single lyoprotectant, amounts 5-20% (FIG. 15)
# Excerpt: FIG. 15 compares particle size as a function of lyoprotectant and lyoprotectant amount for representative phospholipid-coated therapeutic agent (paclitaxel) nanoparticles of the invention, PC-coated paclitaxel nanoparticle manufactured by thin film-hydration method (LM-101), before lyophilization and after reconstitution.
compound,measurement,value
OC[C@H]1O[C@H](O[C@H]2O[C@H](CO)[C@@H](O)[C@H](O)[C@H]2O)[C@H](O)[C@@H](O)[C@@H]1O [Trehalose],stabilization of particles on lyophilization (lyoprotectant),best in stabilizing the particles on lyophilization
